Broadly, the IC50 is the concentration that inhibits the measured activity by half.

Drawing on ChEMBL document CHEMBL1158193, “Ability of different flavonoids to inhibit the procoagulant activity of adherent human monocytes” (J Nat Prod, 1996), this text covers IC50 and Activity for 58 molecules.

In the first experiment the test system is Monocyte. As to the kind of experiment: Inhibition of procoagulant activity in monocyte from human blood assessed as counteraction of IL1-induced tissue factor expression after 18 hrs. The format is functional, cell-based.
In the case of `COc1ccc(-c2oc3cc(O)cc(O)c3c(=O)c2O)cc1` [KAEMPFERIDE], the IC50 was 5700 nM.
Still for that read-out and setting: to `O=C(/C=C/c1ccc(O)cc1)OC[C@H]1O[C@@H](Oc2c(-c3ccc(O)cc3)oc3cc(O)cc(O)c3c2=O)[C@H](O)[C@@H](O)[C@@H]1O` [TILIROSIDE] belongs 5200 nM; to `O=c1cc(-c2ccc(O)c(O[C@@H]3O[C@H](CO)[C@@H](O)[C@H](O)[C@H]3O)c2)oc2cc(O[C@@H]3O[C@H](CO)[C@@H](O)[C@H](O)[C@H]3O)cc(O)c12` [LUTEOLIN-3',7-DIGLUCOSIDE], 1550 nM; to `O=c1cc(-c2ccccc2)oc2cc(O)cc(O)c12` [CHRYSIN], 2400 nM.
For the molecule `O=c1cc(-c2ccc(O)c(O)c2)oc2cc(O)cc(O)c12` [LUTEOLIN], the IC50 was found to be 1500 nM.
For `COc1cc(-c2cc(=O)c3c(O)cc(O)cc3o2)ccc1O` [CHRYSOERIOL], the IC50 stood at 2600 nM.
Take `COc1ccc(-c2cc(=O)c3c(OC)c(OC)c(OC)cc3o2)cc1OC` [SINENSETIN]: the IC50 is 10000 nM.
Consider `O=c1cc(-c2ccc(O)cc2)oc2cc(O)cc(O)c12` [APIGENIN], for which the IC50 is 1200 nM.
For `COc1cc(-c2oc3cc(O)cc(O)c3c(=O)c2O[C@@H]2O[C@H](CO)[C@@H](O)[C@H](O)[C@H]2O)ccc1O`, the IC50 stood at 3800 nM.
Turning to `O=c1c(O)c(-c2ccc(O)c(O)c2)oc2cc(O)ccc12` [FISETIN], the IC50 is 3700 nM.
As for `COc1cc(-c2oc3cc(O)ccc3c(=O)c2O)ccc1O` [GERALDOL], the IC50 worked out at 2300 nM.
On the same count and under the same terms, as for `COc1cc2oc(-c3ccc(O)cc3)cc(=O)c2cc1CC=C(C)C` [BAVACHININ], the figure is 3200 nM; as for `O=c1cc(-c2ccc(Oc3c(O)cc4oc(-c5ccc(O)cc5)cc(=O)c4c3O)cc2)oc2cc(O)cc(O)c12` [HINOKIFLAVONE], 48 nM; as for `COc1cc(-c2oc3cc(O)cc(O)c3c(=O)c2O)ccc1O` [ISORHAMNETIN], 3800 nM.
As to `O=c1c(O)c(-c2ccc(O)cc2)oc2cc(O)cc(O)c12` [KAEMPFEROL], the IC50 is 2700 nM.
`COc1cc(-c2oc3cc(O)cc(O)c3c(=O)c2O)cc(OC)c1O` [SYRINGETIN]: the IC50 is 2100 nM.
For the molecule `COc1ccc(-c2cc(=O)c3c(O)cc(O)cc3o2)cc1O` [DIOSMETIN], the IC50 came to 3000 nM.
For the molecule `COc1ccc([C@@H]2CC(=O)c3c(O)cc(O)cc3O2)cc1O` [HESPERETIN], the IC50 worked out at 2100 nM.
On to `O=c1cc(-c2ccc(O)c(-c3c(O)cc(O)c4c(=O)cc(-c5ccc(O)cc5)oc34)c2)oc2cc(O)cc(O)c12` [AMENTOFLAVONE], for which the IC50 amounted to 3000 nM.
Turning to `COc1ccc(-c2oc3cc(O)cc(O)c3c(=O)c2O)cc1O` [TAMARIXETIN], the IC50 was determined as 4600 nM.

The subject of another experiment is Monocyte. As to the kind of experiment: Inhibition of procoagulant activity in monocyte from human blood assessed as counteraction of endotoxin-induced tissue factor expression after 18 hrs. The format is functional, cell-based.
In the case of `O=c1cc(-c2ccc(Oc3c(O)cc4oc(-c5ccc(O)cc5)cc(=O)c4c3O)cc2)oc2cc(O)cc(O)c12` [HINOKIFLAVONE], the IC50 came out at 18 nM.

The subject of another experiment is Monocyte. As to the kind of experiment: Inhibition of procoagulant activity in monocyte from human blood assessed as counteraction of IL1-induced tissue factor expression at 10 uM after 18 hrs measured as microunits of tissue factor/10^5 cells. The format is functional.
With `COc1ccc(-c2cc(=O)c3c(O)cc(O)c(-c4cc(-c5cc(=O)c6c(O)cc(OC)cc6o5)ccc4OC)c3o2)cc1` [SCIADOPITISIN], the Activity is reported as 0.
On the same count and under the same terms, to `O=c1c(O)c(-c2ccc(O)c(O)c2)oc2cc(O)c(O)c(O)c12` [QUERCETAGETIN] belongs 0; to `COc1cc(-c2cc(=O)c3c(O)c(OC)c(OC)cc3o2)cc(OC)c1OC` [GRADENIN A], 0; to `CCCC(=O)Oc1c(OC)cc(O)c2c(=O)c(O)c(-c3ccccc3)oc12`, 0.
As for `CC(=O)OC[C@H]1O[C@@H](Oc2c(-c3ccc(O)c(O)c3)oc3cc(O)cc(O)c3c2=O)[C@H](O)[C@@H](O)[C@@H]1O`, the Activity stood at 12.4.
With `O=C1c2c(O)cc(O)cc2O[C@H](c2ccc(O)c(O)c2)[C@H]1O` [(+)-TAXIFOLIN], the Activity stood at 41.
Same read-out and setting: as for `O=c1c(O)c(-c2ccc(O)c(O)c2)oc2cc(O)cc(O)c12` [QUERCETIN], the figure is 0.
For the molecule `COc1cc(C2Oc3cc([C@H]4Oc5cc(O)cc(O)c5C(=O)[C@@H]4O)ccc3OC2CO)ccc1O` (stereo partly specified) [SILIBININ], the Activity was found to be 0.
`O=c1cc(-c2ccc(O)c(O)c2)oc2cc(O)cc(O)c12` [LUTEOLIN]: the Activity was found to be 10.6.
`C[C@@H]1O[C@@H](OC[C@H]2O[C@@H](Oc3c(-c4ccc(O)c(O)c4)oc4cc(O)cc(O)c4c3=O)[C@H](O)[C@@H](O)[C@@H]2O)[C@H](O)[C@H](O)[C@H]1O` [RUTIN]: the Activity was 9.1.
Take `COc1ccc([C@@H]2CC(=O)c3c(O)cc(O[C@@H]4O[C@H](CO)[C@@H](O)[C@H](O)[C@H]4O[C@@H]4O[C@@H](C)[C@H](O)[C@@H](O)[C@H]4O)cc3O2)cc1O` [NEOHESPERIDIN]: the Activity was 0.
The same measure, in the same setting: to `O=C1c2ccc(O)cc2O[C@@H](c2cc(O)c(O)c(O)c2)[C@@H]1O` [DIHYDROROBINETIN] belongs 0.
In the case of `O=c1c(O)c(-c2cc(O)c(O)c(O)c2)oc2cc(O)ccc12` [ROBINETIN], the Activity was found to be 38.5.
As to `O=c1cc(-c2ccccc2)oc2ccccc12` [FLAVONE], the Activity turned out to be 6.8.
Still for that read-out and setting: as for `COc1cc([C@@H]2CC(=O)c3c(O)cc(O)cc3O2)ccc1O` [HOMOERIODICTYOL], the figure is 0; as for `COc1ccc(-c2cc(=O)c3c(O)c(OC)c(OC)cc3o2)cc1O` [EUPATORIN], 0; as for `C[C@@H]1O[C@@H](OC[C@H]2O[C@@H](Oc3cc(O)c4c(c3)O[C@H](c3ccc(O)cc3)CC4=O)[C@H](O)[C@@H](O)[C@@H]2O)[C@H](O)[C@H](O)[C@H]1O` [NARIRUTIN], 0.
Turning to `COc1ccc(-c2cc(=O)c3ccccc3o2)cc1` [4'-METHOXYFLAVONE], the Activity worked out at 0.
`COc1ccc(-c2cc(=O)c3c(OC)c(OC)c(OC)cc3o2)cc1O`: the Activity turned out to be 0.
Turning to `O=c1c(O)c(-c2ccc(O)cc2O)oc2cc(O)cc(O)c12` [MORIN], the Activity was determined as 0.
Take `O=c1c(O[C@@H]2O[C@H](CO)[C@@H](O)[C@H](O)[C@H]2O)c(-c2ccc(O)cc2)oc2cc(O)cc(O)c12` [ASTRAGALIN]: the Activity turned out to be 0.
The same measure, in the same setting: to `COc1cc(-c2cc(=O)c3c(O)cc(O)cc3o2)cc(OC)c1OC` belongs 0; to `COc1cc(O)c2c(=O)c(O)c(-c3ccc(O)c(O)c3)oc2c1` [RHAMNETIN], 0.
With `O=c1c(O)c(-c2cc(O)c(O)c(O)c2)oc2cc(O)cc(O)c12` [MYRICETIN], the Activity was determined as 1.2.
On to `O=c1c(O[C@@H]2O[C@@H](CO)[C@H](O)[C@H]2O)c(-c2ccc(O)c(O)c2)oc2cc(O)cc(O)c12` [AVICULARIN], for which the Activity is recorded as 0.
Turning to `O=C1C[C@@H](c2ccc(O)cc2)Oc2cc(O)cc(O)c21` [NARINGENIN], the Activity is on record as 0.
The same measure, in the same setting: as for `O=C1c2ccc(O)cc2O[C@H](c2ccc(O)c(O)c2)[C@H]1O` [FUSTIN], the figure is 0; as for `O=c1cc(-c2ccccc2)oc2cc(O)c(O)c(O)c12` [BAICALEIN], 55.2.
In the case of `COc1c(-c2ccccc2)oc2c(ccc3occc32)c1=O` [KARANJIN], the Activity came out at 0.
As to `O=c1cc(-c2ccc(Oc3c(O)cc4oc(-c5ccc(O)cc5)cc(=O)c4c3O)cc2)oc2cc(O)cc(O)c12` [HINOKIFLAVONE], the Activity is listed as 0.
With `O=c1c(O)c(-c2ccccc2)oc2cc(O)cc(O)c12` [GALANGIN], the Activity is 0.
For the molecule `O=c1c(-c2ccc(O)cc2)coc2cc(O)ccc12` [DAIDZEIN], the Activity stood at 0.
On the same count and under the same terms, as for `C[C@@H]1O[C@@H](OC[C@H]2O[C@@H](Oc3c(-c4ccccc4O)oc4cc(O)cc(O)c4c3=O)[C@H](O)[C@@H](O)[C@@H]2O)[C@H](O)[C@H](O)[C@H]1O`, the figure is 28.4; as for `C[C@H]1O[C@@H](Oc2c(-c3cc(O)c(O)c(O)c3)oc3cc(O)cc(O)c3c2=O)[C@@H](O)[C@@H](O)[C@@H]1O` [MYRICITRIN], 37.7; as for `O=c1c(-c2ccc(O)cc2)coc2cc(O[C@@H]3O[C@H](CO)[C@@H](O)[C@H](O)[C@H]3O)ccc12` [DAIDZIN], 0.
As for `COc1ccc(-c2cc(=O)c3c(OC)c(OC)c(OC)c(OC)c3o2)cc1` [TANGERETIN], the Activity is given as 0.
Still for that read-out and setting: to `COc1ccc(-c2cc(=O)c3c(O)cc(O)cc3o2)cc1` [ACACETIN] belongs 26; to `COc1cc(O)c2c(=O)cc(-c3ccccc3)oc2c1` [TECHTOCHRYSIN], 39; to `O=c1c(O)c(-c2ccccc2O)oc2cc(O)cc(O)c12` [DATISCETIN], 28.4.
As for `O=c1c(-c2ccc3c(c2)OCO3)coc2cc(O)ccc12` [PSEUDOBAPTOGENIN], the Activity is listed as 0.
